Measurements taken from US20230357334A1, “COMPOSITION OF DRUG AND WILD-TYPE CELL-PENETRATING PEPTIDE DERIVATIVE” (ALEPHOSON BIOPHARMACEUTICALS LTD., priority 2020, published 2023).
Entries after “also recorded” stand apart in the source; their conditions may differ. Like-named read-outs stand apart in the source and are kept apart here.

What was measured:
[1] = rabbit, in vivo
Description: Firstly, eye drops were prepared. Polypeptide/Aflibercept composition was prepared by diluting Aflibercept (40 mg/mL) to 20 mg/mL with a commercially available Aflibercept injection solvent, dissolving polypeptide 289WP to 6.16 mg/mL with this solution, and storing at 4° C. for use. Before being used, the composition was incubated for at least 24 h at 4° C., and kept standing at room temperature for 1 h.
Next, the administration and sampling protocol were determined. Healthy male rabbits each about 1 kg were selected, eyes of which were ensured to be normal by ophthalmic examination before the experiment. The experimental process follows the ethical specifications of experimental animals. Each eye of the rabbit was dripped with 30 μL of different composition solutions containing 600 μg of Aflibercept per eye. Ocular tissue samples were taken at 1 h after administration.
Subsequently, the Aflibercept concentrations in tissues were determined. The ELISA plate coated with antigen (hVEGF-A165) was prepared, as well as the extracted tissues (total protein extraction solution of blood plasma, aqueous humor, vitreous humor and retina). […]
The concentrations of Aflibercept in tissues were measured at 1 h after administration. Significant differences were analyzed by 2-tailed unpaired t-test (^nsp>0.05, *p<0.05).

HCECs [2] = experiment: Endocytosis mechanism of 289WP/Ranibizumab composition (temperature, endocytosis inhibitors), HCECs; type: cell-based, human; settings: Mixture without inhibition = 100%
Description: (§1) The uptake amount of 289WP-FAM or Cy5-Rani in the Mixture without inhibition is used as control (100%). Significant differences were analyzed by 1-tailed ANOVA, corrected by Dunnett's test (n=3, ^nsp>0.05, *p<0.05, **p<0.01, ***p<0.001).

ARPE-19 cells [3] = experiment: Endocytosis mechanism of 289WP/Ranibizumab composition (temperature, endocytosis inhibitors), ARPE-19; type: cell-based, human; settings: Mixture without inhibition = 100%
Description: as §1

ARPE-19 cells [4] = experiment: Cell uptake of Ranibizumab mediated by different polypeptides, ARPE-19; type: cell-based, human; settings: for increase of mean fluorescence intensity compared with free antibodies: 10 μM polypeptide + 1 μM Cy5-Rani (10:1), freshly prepared, 2 h, 37° C.; for mean fluorescence intensity of cells, comparison between polypeptides: composition solutions stored at 4° C. for 7 days; for cell uptake of Ranibizumab mediated by polypeptide, comparison between polypeptides: molar ratio 10:1, freshly prepared
Description: (§2) Well-grown cells HCECs, ARPE-19 and HUVECs were taken and plated respectively in a 24-well plate at 1×10^4 cells/well. After incubating for 24 h, the culture solution was discarded, and solutions of different compositions of polypeptide/Cy5-Rani mixture (containing 1 μM of Cy5-Rani) were added and incubated for 2 h at 37° C. The drug solution was then discarded, and the cells were washed 3 times with 10 mM PBS (containing 0.02 mg/mL heparin sodium), collected, and resuspended in 10 mM PBS. Flow cytometer was used for detecting positive cell rate and mean fluorescence intensity, with detecting channel excitation wavelength of 638 nm and emission wavelength of 660 nm. […] 10 μM of different polypeptides were mixed with 1 μM Cy5-Rani, respectively, and incubated at 4° C. for 24 h to obtain composition solutions. Before the detection, the composition solutions were incubated at 37° C. with different cells for 2 h, or the composition solutions were stored at 4° C. for 7 days and then incubated with the cells. Flow cytometer was used for detecting the mean fluorescence intensity values of cells (Ex 638 nm/Em 660 nm).

HCECs [5] = experiment: Cell uptake of Ranibizumab mediated by different polypeptides, HCECs; type: cell-based, human; settings: for increase of mean fluorescence intensity compared with free antibodies: 10 μM polypeptide + 1 μM Cy5-Rani (10:1), freshly prepared, 2 h, 37° C.; for mean fluorescence intensity of cells, comparison between polypeptides: composition solutions stored at 4° C. for 7 days; for cell uptake of Ranibizumab mediated by polypeptide, comparison between polypeptides: molar ratio 10:1, freshly prepared
Description: as §2

[6] = system: HCECs, ARPE-19 and HUVECs; experiment: Cell uptake of polypeptide/Ranibizumab compositions at different molar ratios; type: cell-based, human; settings: 89WP:Ranibizumab molar ratio 5:1 to 18:1; 3 kinds of cells; 1 μM Cy5-Rani; 2 h, 37° C.
Description: First, Ranibizumab was fluorescently labeled. […] After the addition of 0.12 mg fluorescence labeling reagent Sulfo-Cy5-NHS, the solution was stirred and reacted overnight under the condition of 4° C.
Next, a polypeptide/Ranibizumab composition was prepared. Appropriate amount of polypeptide was weighed and dissolved by using a certain volume of commercially available Ranibizumab injection.
Well-grown cells HCECs, ARPE-19 and HUVECs were taken and plated respectively in a 24-well plate at 1×10^4 cells/well. After incubating for 24 h, the culture solution was discarded, and solutions of different compositions of polypeptide/Cy5-Rani mixture (containing 1 μM of Cy5-Rani) were added and incubated for 2 h at 37° C. The drug solution was then discarded, and the cells were washed 3 times with 10 mM PBS (containing 0.02 mg/mL heparin sodium), collected, and resuspended in 10 mM PBS. Flow cytometer was used for detecting positive cell rate and mean fluorescence intensity, with detecting channel excitation wavelength of 638 nm and emission wavelength of 660 nm.
Significance analysis was performed using One-Way ANOVA test, corrected by Tukey's test (n=3, ^nsp>0.05, *p<0.05, **p<0.01, ***p<0.001).

ARPE-19 cells [7] = experiment: Uptake of 89WP/nanoantibody compositions at different ratios, flow cytometry; type: cell-based, human; settings: 89WP:nanoantibody molar ratio 5:1 to 50:1; 2 h
Description: 89WP/nanoantibody eye drops were prepared according to the proportion in Table 5, and incubated overnight at 4° C. for later use.
The ARPE-19 cells were plated in a 24-well plate and cultured for over 24 h. The culture solution was then discarded, and 200 μL of the drug solution and 300 μL of serum-free culture solution were added into each well. After 2 h of incubation, the drug solution was discarded, and the cells were washed 3 times with PBS, digested and resuspended in PBS. Flow cytometer was used for detecting Cy5 fluorescence signals (Ex: 645 nm, Em: 665 nm).

[8] = rabbit, in vivo; remark: listed apart in the source
Description: Firstly, eye drops were prepared. […] The compositions were stored at 4° C. for later use. Before being used, the compositions were incubated for at least 24 h at 4° C., and kept standing at room temperature for 1 h.
Subsequently, the administration and tissue sampling protocol were determined. Healthy male rabbits each about 1 kg were selected, eyes of which were ensured to be normal by ophthalmic examination before the experiment. The experimental process follows the ethical specifications of experimental animals. […] Ocular tissue samples were taken at 1 h, 4 h, 8 h, 12 h and 24 h after the administration.
The ELISA plate coated with antigen (hVEGF-A165) was prepared, as well as the extracted tissues (total protein extraction solution of blood plasma, aqueous humor, vitreous humor and retina).
Significant differences were analyzed by 1-tailed ANOVA, corrected by Tukey's test (^nsp>0.05, *p<0.05, **p<0.01, compared to the Rani group).

Substance: Aflibercept
- intraocular absorption after eye drop without penetratin derivative [1]: hardly absorbed

Substance: Cy5-Rani: Cy5-labeled Ranibizumab
- cell uptake rate (HCECs [2]; Dynasore added): 24.4%
- cell uptake rate (HCECs [2]; at 4° C.): 40.6%
- cell uptake rate (HCECs [2]; chlorpromazine added): 37.8%
- cell uptake rate (HCECs [2]; hypertonic sucrose added): 35.2%
- cell uptake rate (ARPE-19 cells [3]; Dynasore added): 31.4%
- cell uptake rate (ARPE-19 cells [3]; at 4° C.): 79.6%
- cell uptake rate (ARPE-19 cells [3]; chlorpromazine added): 63.0%
- cell uptake rate (ARPE-19 cells [3]; hypertonic sucrose added): 75.7%

Substance: Q2W, N9W-Penetratin (RWIKIWFQWRRMKWKK) [29WP]
- increase of mean fluorescence intensity compared with free antibodies (ARPE-19 cells [4]): 11.1 times
- mean fluorescence intensity of cells, comparison between polypeptides (ARPE-19 cells [4]): still the highest
- cell uptake of Ranibizumab mediated by polypeptide, comparison between polypeptides (ARPE-19 cells [4]): best effect
- increase of mean fluorescence intensity compared with free antibodies (HCECs [5]): 13.5 times
- mean fluorescence intensity of cells, comparison between polypeptides (HCECs [5]): still the highest
- cell uptake of Ranibizumab mediated by polypeptide, comparison between polypeptides (HCECs [5]): strongest capacity; also recorded: best effect

Substance: Q2W, Q8W, N9W-Penetratin (RWIKIWFWWRRMKWKK) [289WP]
- increase of mean fluorescence intensity compared with free antibodies (ARPE-19 cells [4]): 11.3 times
- mean fluorescence intensity of cells, comparison between polypeptides (ARPE-19 cells [4]): still the highest
- cell uptake of Ranibizumab mediated by polypeptide, comparison between polypeptides (ARPE-19 cells [4]): best effect
- increase of mean fluorescence intensity compared with free antibodies (HCECs [5]): 14.7 times
- mean fluorescence intensity of cells, comparison between polypeptides (HCECs [5]): still the highest
- cell uptake of Ranibizumab mediated by polypeptide, comparison between polypeptides (HCECs [5]): strongest capacity; also recorded: best effect

Substance: Q8W, N9W-Penetratin (RQIKIWFWWRRMKWKK) [89WP]
- increase of 89WP-mediated uptake of antibody compared with free antibody [6]: 2.2-6.7 times
- cell uptake of nanoantibody compared with nanoantibody alone (ARPE-19 cells [7]): significantly promote

Substance: Ranibizumab
- intraocular absorption after eye drop without penetratin derivative [8]: hardly absorbed
